Results from patent US8642350B2, “Sensor material and uses thereof to simultaneously sense two analytes: oxygen and pH or acidic/basic gaseous ions” (University College Cork, National University of Ireland, …, priority 2010, dated 2014).

Assays:
Assay type in all cases: physicochemical
[1] = Oxygen calibration by phosphorescence lifetime (quenching by dissolved O2); conditions: for quenching by dissolved O2: sensors in aqueous solutions, 0-21 kPa O2; for Lifetime 0% O2 / Lifetime 21% O2: solid state sensor form; for Lifetime 0% O2: 0% O2, 24° C.; for Lifetime 21% O2: 21% O2, 24° C.
Protocol: (§1) FIG. 2: Oxygen calibration in the phosphorescence lifetime (A) and Stern-Volmer (right) scales for the Pt-OEP-CH═N—CH3 (♦) and Pd-OEP-CH═N—CH3 (▪) sensors, measured in sodium acetate, pH 6 at 24° C. (B). pH calibration of Pt-OEP-CH═N—CH3 (absorbance) at certain pH steps, the two black bars show the bandwidth of commercial LEDs at 400 nm and 450 nm (C) and of Pt-OEP-CH═N—CH3 (♦) and Pd-OEP-CH═N—CH3 (▪) at 24° C. and 30° C. respectively (emission intensity) (D), measured in sodium acetate.
(§2) This cocktail of sensor components was applied in 2 μl aliquots on a solid support (e.g. Mylar® foil or microporous polymeric membrane) and left to evaporate all the solvents. […] Other sensor formulations can also be used, such formulations are known to specialists in the area.
(§3) Thin film (˜5 μm) sensor coatings produced according to Table 1 were studied for their photophysical, O2 and pH sensing properties.
The unquenched phosphorescence lifetime of 70 μs in O2-free buffer (at 24° C.) was close to that of the other Pt-porphyrins and O2 sensors on their basis. In air-saturated solution (20.9 kPa or 250 μM) the lifetime was reduced by approximately 60%. […] Full O2 calibrations of the two sensors show a pronounced non-linearity of Stern-Volmer plots (in FIG. 2B).

[2] = Absorption and emission spectra of thin film sensor coatings; conditions: solid state sensor form
Excerpt: On the other hand, protonation of the peripheral group (Schiff base) leads to the formation of a delocalised carbocation represented by 10 resonant structures. This process is accompanied by major spectral changes: a shift in absorbance peak from 398 nm to 443 nm and the disappearance of the porphyrin type of electronic spectra and phosphorescence. The process is reversible and potentially allows for sensing of the protonation or pH changes by means of absorbance or phosphorescence measurements.
as §2, §3

[3] = pH calibration (pKa) of solid state sensors by absorbance / phosphorescence intensity; conditions: for pH range covered by the sensor: air-saturated buffer; for pKa value (21% O2) 0 mM NaCl / pKa value (21% O2) 500 mM NaCl: solid state sensor form
Protocol: as §1, §2, §3
With respect to their pH sensitivity, the two sensors produced the anticipated spectral responses which occurred in the useful range of pH. […] However, the decrease in phosphorescence intensity signal occurred without any significant changes in the phosphorescence lifetime.

cross-sensitivity of O2 response to pH ([1]; phosphorescence lifetime modality) | O2 range the dual-analyte sensor is well suited for ([1]; physiological range) | unquenched lifetime ([1]; sensor, unquenched) | quenching by dissolved O2 [1] | Lifetime 0% O2 [1] | Lifetime 21% O2 [1] | Emission [2] | Absorption ([2]; pH 2.0) | Absorption ([2]; pH 8.0) | pH range covered by the sensor ([3]; 24° C.) | pH range the dual-analyte sensor is well suited for ([3]; physiological range) | pKa value (21% O2) 0 mM NaCl ([3]; 24° C.) | pKa value (21% O2) 0 mM NaCl ([3]; 30° C.) | pKa value (21% O2) 500 mM NaCl ([3]; 24° C.) | pKa value (21% O2) 500 mM NaCl ([3]; 30° C.) | reduction of lifetime in air-saturated solution ([1]; air-saturated solution (20.9 kPa or 250 μM O2)) | unquenched phosphorescence lifetime ([1]; sensor in O2-free buffer, 24° C.) | pKa more acidic than the Pd-OEP-CH═N—CH3 sensor ([3]; difference between the two sensors) | SMILES
no cross-sensitivity to pH | 0 to 200 µM | 147 µs | more favorable quenchability | 172 (24° C.) μs | 33 (24° C.) μs | 673 nm | 443 (pH 2.0) nm | 398 (pH 8.0) nm | 6.5-8.0 | 6-8 | 5.9 (24° C.) | 6.9 (30° C.) | 5.5 (24° C.) | 6.5 (30° C.) | – | – | – | CN=CC1=C2N=C(C=c3c(C)c(CCC(=O)OC)c4[n]3[Pd][n]3c(c(C)c(CCC(=O)OC)c31)C=C1N=C(C=4)C(C)=C1CCC(=O)OC)C(CCC(=O)OC)=C2C [Pd—CPE—CH═NMe]
– | – | – | moderate quenching | 60 (24° C.) μs | 36 (24° C.) μs | 670 nm | 443 (pH 2.0) nm | 398 (pH 8.0) nm | 5-7 | – | 4.3 (24° C.) | 5.9 (30° C.) | – | 5.5 (30° C.) | approximately 60% | 70 μs | ~1 pH unit | CCC1=C(CC)c2cc3[n-]c(c(C=NC)c4nc(cc5[n-]c(cc1n2)c(CC)c5CC)C(CC)=C4CC)c(CC)c3CC.[Pt+2] [Pt—OEP—CH═NMe]
